This is an account of results in patent US5565469A, “Benzimidazoles and pharmaceutical compositions containing them” (Dr. Karl Thomae GmbH, priority 1994, dated 1996).

The target of the assay is T1, Angiotensin-II-receptor (Rattus norvegicus, UniProt P25095).
T1 construct: The tissue (rat's lung) is homogenised in tris buffer; from tissue; host or cells: rat lung homogenate
T1 sequence (P25095 1-359): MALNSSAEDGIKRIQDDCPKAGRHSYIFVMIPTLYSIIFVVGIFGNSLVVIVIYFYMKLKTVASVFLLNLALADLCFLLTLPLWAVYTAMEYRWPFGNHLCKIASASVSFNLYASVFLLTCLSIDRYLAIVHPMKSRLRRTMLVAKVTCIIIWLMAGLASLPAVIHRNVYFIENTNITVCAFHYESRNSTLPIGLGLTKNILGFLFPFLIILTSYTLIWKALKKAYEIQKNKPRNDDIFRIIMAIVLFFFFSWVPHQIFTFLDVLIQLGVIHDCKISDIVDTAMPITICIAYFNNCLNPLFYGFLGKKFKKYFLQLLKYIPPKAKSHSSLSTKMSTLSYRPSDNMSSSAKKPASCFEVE
Briefly: Angiotensin-II-receptor binding (rat lung homogenate, [^125 I]-angiotensin-II displacement). As to conditions: rat's lung homogenate; 50 pM [^125 I]-angiotensin-II; 60 minutes at 37° C.; pH 7.40. As to the method:
The tissue (rat's lung) is homogenised in tris buffer (50 mMol Tris, 150 mMol NaCl, 5 mMol EDTA, pH 7.40) and centrifuged twice for 20 minutes each time at 20,000×g. The resulting pellet is resuspended in incubation buffer (50 mMol Tris, 5 mMol MgCl2, 0.2% BSA, pH 7.40) 1:75, based on the moist weight of the tissue. Each 0.1 ml of homogenate is incubated for 60 minutes at 37° C. with 50 pM [^125 I]-angiotensin-II (NEN, Dreieich, FRG) and increasing concentrations of the test substance in a total volume of 0.25 ml. The incubation is terminated by rapid filtration through glass fibre filter mats. The filters are each washed with 4 ml of ice cold buffer (25 mMol Tris, 2.5 mMol MgCl2, 0.1% BSA, pH 7.40). The bound radioactivity is measured in a gamma-counter. The corresponding IC50 value is determined from the dosage-activity curve.
On to `CCCc1nc2c(C)cc(-c3nc4ccccc4n3C)cc2n1Cc1ccc(-c2ccccc2S(=O)(=O)NC(=O)NC2CCCCC2)cc1` [G], for which the IC50 worked out at 310 nM.

In turn, `CCc1nc2c(C)cc(-c3cn4c(n3)CCCC4)cc2n1Cc1ccc(-c2ccccc2S(=O)(=O)NC(=O)c2ccccc2)cc1` [I] showed an IC50 of 36 nM.

`CCCc1nc2c(C)cc(-c3nc4ccccc4n3C)cc2n1Cc1ccc(-c2ccccc2S(=O)(=O)O)cc1` [B] returned an IC50 of 8 nM.

In turn, `CCCc1nc2c(C)cc(-c3nc4ccccc4n3C)cc2n1Cc1ccc(-c2ccccc2S(=O)(=O)NC(=O)c2ccccc2)cc1` [H] showed an IC50 of 78 nM.

In the case of `CCc1nc2c(C)cc(-c3cn4c(n3)CCCC4)cc2n1Cc1ccc(-c2ccccc2S(=O)(=O)O)cc1` [C], the IC50 came to 3.4 nM.

Turning to `CCc1nc2c(C)cc(-c3cn4c(n3)CCCC4)cc2n1Cc1ccc(-c2ccccc2NC(=O)C(F)(F)F)cc1` [E], the IC50 turned out to be 28 nM.

The molecule `CCCCc1nc2c(C)cc(N3CCCS3(=O)=O)cc2n1Cc1ccc(-c2ccccc2S(=O)(=O)NC(=O)c2ccccc2)cc1` [J] yielded an IC50 of 13.9 nM.

`CCCc1nc2c(C)cc(-c3nc4ccccc4n3C)cc2n1Cc1ccc(-c2ccccc2NC(=O)C(F)(F)F)cc1` [D] came in with an IC50 of 40 nM.

As for `CCc1nc2c(C)cc(-c3cn4c(n3)CCCC4)cc2n1Cc1ccc(-c2ccccc2S(=O)(=O)NC(=O)NC2CCCCC2)cc1` [K], the IC50 is 73 nM.

On to `CCCc1nc2c(C)cc(-c3nc4ccccc4n3C)cc2n1Cc1ccc(-c2ccccc2C=C2SC(=O)NC2=O)cc1` [A], for which the IC50 turned out to be 94 nM.

`CCCc1nc2c(C)cc(-c3nc4ccccc4n3C)cc2n1Cc1ccc(-c2ccccc2S(=O)(=O)NC(=O)NCc2ccc(OC)cc2)cc1` [F] had a 50% inhibitory concentration (IC50) of 110 nM.

The term IC50 denotes the concentration at which inhibition is half-maximal.
